Test results taken from patent publication US20260256134A1, “NanoEmulsion Composite Mixture of Essential Oils with Biodegradable Polymers and Co-Surfactants for Antimicrobial Activities and Enhanced Thermal Stability and Antioxidant Activities” (The American University in Cairo, priority 2022, published 2026).

How the values were obtained:
[1] = system: Penicillium italicum; test: Inhibition zone method, antimicrobial activity; assay type: cell-based
Excerpt: (§1) Inhibition zone method was followed in order to test the antimicrobial efficiency of the selected nanoemulsion composite mixture samples against 6 chosen strains of gram-positive bacterial strains, 6 strains of gram-negative bacterial strains 6 strains of fungi as shown in the following list;
(§2) The following formulae were defined: • Formula 1 (F1): Green tea essential oil • Formula 2 (F2): Chitosan solution • Formula 3 (F3): benzalkonium solution • Formula 4 (F4): control (antimicrobial compound) • Formula 5 (F5): Green tea essential oil+Chitosan solution • Formula 6 (F6): The final formula of the nanoemulsion composite mixture
(§3) Inhibition zone method was followed in order to test the antimicrobial efficiency of the 6 selected nanoemulsion composite mixture samples against 6 chosen strains of gram-positive bacterial strains, 6 strains of gram-negative bacterial strains 6 strains of fungi.

[2] = system: Streptococcus mutants; test: Inhibition zone method, antimicrobial activity; assay type: cell-based
Excerpt: as §1, §2, §3

[3] = system: Eisherecia coli; test: Inhibition zone method, antimicrobial activity; assay type: cell-based
Excerpt: as §1, §2, §3

[4] = system: Candida albicans; test: Inhibition zone method, antimicrobial activity; assay type: cell-based
Excerpt: as §1, §2, §3

[5] = system: Aspergillus niger; test: Inhibition zone method, antimicrobial activity; assay type: cell-based
Excerpt: as §1, §2, §3

[6] = system: Staphylococcus aureus; test: Inhibition zone method, antimicrobial activity; assay type: cell-based
Excerpt: as §1, §2, §3

[7] = system: Fusarium moniliform; test: Inhibition zone method, antimicrobial activity; assay type: cell-based
Excerpt: as §1, §2, §3

[8] = system: Aspergillus fumigatus; test: Inhibition zone method, antimicrobial activity; assay type: cell-based
Excerpt: as §1, §2, §3

[9] = system: Proteus vulgaris; test: Inhibition zone method, antimicrobial activity; assay type: cell-based
Excerpt: as §1, §2, §3

[10] = system: Enterococcus faecalis; test: Inhibition zone method, antimicrobial activity; assay type: cell-based
Excerpt: as §1, §2, §3

[11] = system: Micrococcus spp.; test: Inhibition zone method, antimicrobial activity; assay type: cell-based
Excerpt: as §1, §2, §3

[12] = system: Bacillus subtilis; test: Inhibition zone method, antimicrobial activity; assay type: cell-based
Excerpt: as §1, §2, §3

[13] = system: Salmonella Typhium; test: Inhibition zone method, antimicrobial activity; assay type: cell-based
Excerpt: as §1, §2, §3

[14] = system: Klebsella pneumonia; test: Inhibition zone method, antimicrobial activity; assay type: cell-based
Excerpt: as §1, §2, §3

[15] = system: Pseudomonas aeruginosa; test: Inhibition zone method, antimicrobial activity; assay type: cell-based
Excerpt: as §1, §2, §3

[16] = system: Enterobacter colacae; test: Inhibition zone method, antimicrobial activity; assay type: cell-based
Excerpt: as §1, §2, §3

[17] = system: Geotricum candiaum; test: Inhibition zone method, antimicrobial activity; assay type: cell-based, Geotricum candidum
Excerpt: as §1, §2, §3

[18] = system: MRSA; test: Inhibition zone method, antimicrobial activity; assay type: cell-based, Methicillin-resistant Staphylococcus aureus (MRSA)
Excerpt: as §1, §2, §3

[19] = orally administered to rats; cited from earlier work

Question: Which results are given for benzalkonium [Formula F3]?
Answer: Antimicrobial activity expressed as % inhibition [1]: 96%; Antimicrobial activity expressed as % inhibition [2]: 45%; Antimicrobial activity expressed as % inhibition [3]: 63%; Antimicrobial activity expressed as % inhibition [4]: 50%; Antimicrobial activity expressed as % inhibition [5]: 70%; Antimicrobial activity expressed as % inhibition [6]: 50%; Antimicrobial activity expressed as % inhibition [7]: 90%; Antimicrobial activity expressed as % inhibition [8]: 52%; Antimicrobial activity expressed as % inhibition [9]: 95%; Antimicrobial activity expressed as % inhibition [10]: 60%; Antimicrobial activity expressed as % inhibition [11]: 64%; Antimicrobial activity expressed as % inhibition [12]: 72%; Antimicrobial activity expressed as % inhibition [13]: 41%; Antimicrobial activity expressed as % inhibition [14]: 80%; Antimicrobial activity expressed as % inhibition [15]: 66%; Antimicrobial activity expressed as % inhibition [16]: 94%; Antimicrobial activity expressed as % inhibition [17]: 89%; Antimicrobial activity expressed as % inhibition [18]: 90%

Question: With Benzalkonium chloride [BAC] as the substance, how does the “Lethal dose 50 (LD50)” value [19] read?
Answer: 234 to 525 mg/kg
